# Laboratory results taken from patent US5049552A, “Compositions containing hexadecylphosphocholine and use thereof” (Max-Planck-Gesellschaft fur Foerderung der Wissenschaften …, priority 1985, dated 1991).
# Read-outs that look alike come from different tables or passages of the source.
# Assays:
# [1] = Pharmazie 37, 1982, pages 706-707; cited from earlier work
# [2] = test system: chemically induced mammary carcinomas; experiment: chemically induced mammary carcinoma of the rat (7,12-dimethylbenzanthracene or methylnitrosourea), in vivo; conditions: for minimal effective dose / effect on tumor growth / general dose range for the action / general dose range for the action, especially: rat; for minimal effective dose: read-out: lowest already effective dose
# Excerpt: For oral administration, hexadecylphosphocholine is used, for example, in the form of a potable solution. As carriers there are suitable, for example, milk, cocoa, fruit juice or drinking water. The preparation of such a potable solution takes place, for example, by dilution of a concentrated alcoholic solution of hexadecylphosphocholine with water or another of the previously mentioned agents. […] In the case of the tumor model used for these experiments, it is a question of a so-called hard model. This means that findings obtained with this model can also be transmitted to the human situation.
# [3] = test system: tumors; experiment: anti-tumor action and toxicity, general statement (homologous alkyl compounds); conditions: for anti-tumor action / toxicity: general statement
# [4] = subacute toxicity during a treatment of 5 weeks (mortality, median survival time); format: in vivo, rat
# Excerpt: (§1) Hexadecylphosphocholine is a known substance. […] Therefore, in spite of an anti-tumor action, the median survival time in comparison with the control was shortened by 72% in the case of octadecylphosphocholine-treated animals.
# [5] = test system: methylnitrosourea-induced mammary carcinoma; experiment: methylnitrosourea-induced mammary carcinoma of the rat, in vivo
# Excerpt: as §1
# [6] = test system: 7,12-dimethylbenzanthracene-induced mammary carcinoma; experiment: 7,12-dimethylbenzanthracene-induced mammary carcinoma of the rat; format: in vivo
# [7] = test system: L1210; experiment: L1210 colony experiment in vitro; format: cell-based
# [8] = 5 weeks, daily dose 77 μmole/kg rat orally
structure (smiles),measurement,setting,value
CCCCCCCCCCCCCCCCOP(=O)([O-])OCC[N+](C)(C)C [hexadecylphosphocholine],lysing and fusogenic action,[1],a lysing and fusogenic action
same,minimal effective dose,"[2]; iv, intravenously",5 mg/kg
same,minimal effective dose,"[2]; po, orally",5 mg/kg
same,effect on tumor growth,[2]; 10 mg./kg. body weight,cessation of growth of the tumors
same,effect on tumor growth,[2]; doses higher than 10 mg./kg.,complete disappearance of the growths
same,general dose range for the action,[2]; intravenously,5 to 50 mg/kg
same,"general dose range for the action, especially",[2]; intravenously,15 to 32 mg/kg
same,general dose range for the action,[2]; orally,5 to 50 mg/kg
same,"general dose range for the action, especially",[2]; orally,15 to 32 mg/kg
same,remission of chemically induced mammary carcinomas,"[2]; rats, daily doses of 20, 40 and 60 mg./kg., oral",complete remission
same,compatibility versus 1-octadecyl-2-methyl-rac-glycero-3-phosphocholine,"[2]; rats, oral",better compatible
same,effectiveness versus 1-octadecyl-2-methyl-rac-glycero-3-phosphocholine,"[2]; rats, oral",better effective
same,anti-tumor action,[3],practically useful good anti-tumor action
same,toxicity,[3],sufficient anti-tumor action in non-toxic doses
same,anti-tumor action,[3]; listed as Hexadecylphosphocholine,excellent anti-tumor action
same,synergistic increase of antitumor action with alkylglycerols / glycerol ethers of formula I,[3]; hexadecylphosphocholine together with alkylglycerol,synergistic action increase of the antitumor action
same,mortality in comparison with octadecylphosphocholine-treated animals,[4]; [8],lower by a half
same,increase of the median survival time in comparison with the controls,"[4]; 5 weeks, highly significant",26%
same,chronic toxicity,"[4]; rat, oral",absence of a chronic toxicity
same,action on methylnitrosourea-induced mammary carcinoma,[5]; rat,good action
same,"action on 7,12-dimethylbenzanthracene-induced mammary carcinoma",[6],good action
"CCCCCCCCCCCCCCCCCCOP(=O)([O-])OCC[N+](C)(C)C [octadecylphosphocholine, reference compound]",anti-tumor action,[3],anti-tumor effective
same,toxicity,[3],far too toxic
same,shortening of median survival time in comparison with the control,[4]; [8],72%
same,mortality at 840 h,"[4]; in vivo, po, 77 umol/kg, 5 weeks, daily dose 77 μmole/kg rat orally, read-out: mortality (of all animals)",80%
"CCCCCCCCCCCCCCOP(=O)([O-])OCC[N+](C)(C)C [tetradecylphosphocholine, reference compound]",anti-tumor action,"[5]; in vivo, autochthonous methylnitrosourea-induced mammary carcinoma of the rat",practically no anti-tumor action
same,anti-tumor action,[7],practically no anti-tumor action
